The source made the active and inactive calls.
Assays:
Fibrinogen beta chain [1] = biological target: T1, Fibrinogen beta chain (Homo sapiens, UniProt P02675); experiment: Fluorescence polarization-based biochemical high throughput dose response assay to identify inhibitors that disrupt the binding of a cyclic peptide (Tn7) to the fibrin proteolytic product D-Dimer and fragment E complex [DD(E )].
Fibrinogen beta chain [2] = biological target: T1, Fibrinogen beta chain; experiment: Fluorescence polarization-based biochemical high throughput dose response assay to identify inhibitors that disrupt the binding of a cyclic peptide (Tn6) to the fibrin proteolytic product D-Dimer and fragment E complex [DD(E )].
[3] = tested on: Streptococcus sp. 'group A'; experiment: growth inhibition of control SK(-) GAS strain, dose response, counter-screen for streptokinase expression inhibitor project, luminescence, kanamycin, BacTiterGlo, confirmation (AID 1900); type: functional, organism-based
[4] = NIH-3T3 fibroblast cytotoxicity, dose response, cytotoxicity control, cell-based, fluorescence, Alamar Blue, secondary assay (AID 2327); type: functional;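 further: NIH-3T3 mouse fibroblasts cultured with fluconazole at 8 µg/mL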
[5] = HepG2 hepatoma cell cytotoxicity, dose response, cytotoxicity control, CellTiter-Glo luminescence, dry powder, set 3 (AID 720594); type: functional, cell-based
cells [6] = type: functional, cell-based
[7] = HepG2 cell cytotoxicity, dose response, cytotoxicity control for Shn3 inhibitor project, CellTiter-Glo, cherry-picked (AID 624134); type: functional, cell-based
HT-1080 = experiment: cytotoxicity in HT1080 fibrosarcoma cells, cell-based, fluorescence readout (AID 620); type: functional; settings: Homo sapiens
Streptococcus = experiment: Group A Streptococcus viability loss, dose response, counter-screen for streptokinase expression inhibitor project, luminescence, BacTiterGlo (AID 1915); type: functional, organism-based;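 further: potency for reduction of bacterial viability or growth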
cells [8] = type: functional, cell-based; remark: listed apart in the source
[9] = biological target: Luciferin 4-monooxygenase (Photinus pyralis, UniProt P08659); experiment: Counter Screen for Luciferase-based Assay Positives. [Related pubchem assays: 620, 618, 411 ]
Chain of Luciferin 4-monooxygenase (P08659 whole entry): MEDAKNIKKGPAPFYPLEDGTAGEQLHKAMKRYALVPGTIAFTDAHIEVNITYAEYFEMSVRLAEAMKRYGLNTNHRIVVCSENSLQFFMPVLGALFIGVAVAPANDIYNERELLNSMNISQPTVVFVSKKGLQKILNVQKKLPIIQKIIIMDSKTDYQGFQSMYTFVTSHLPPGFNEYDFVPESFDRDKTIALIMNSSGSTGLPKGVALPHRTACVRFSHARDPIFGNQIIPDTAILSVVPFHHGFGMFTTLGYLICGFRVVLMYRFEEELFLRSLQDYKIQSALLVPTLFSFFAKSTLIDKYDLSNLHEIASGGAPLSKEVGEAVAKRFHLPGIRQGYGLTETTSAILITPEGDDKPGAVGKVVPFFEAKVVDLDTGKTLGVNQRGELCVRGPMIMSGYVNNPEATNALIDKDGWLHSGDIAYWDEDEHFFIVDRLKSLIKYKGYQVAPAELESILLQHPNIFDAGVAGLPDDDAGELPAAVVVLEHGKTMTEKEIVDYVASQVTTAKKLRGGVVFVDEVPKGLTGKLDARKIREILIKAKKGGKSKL

[10] = C. albicans growth with fluconazole, confirmation, fluorescence, retest (AID 2467); type: functional, cell-based
[11] = HEK293T cytotoxicity, dose response, cytotoxicity control for miR-122 modulator project, cell-based, activator set, cherry-pick (AID 720690); type: functional;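 further: HEK293T human cells scored for general mammalian cytotoxicity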
Coagulation factor XII = biological target: T2, Coagulation factor XII (Homo sapiens, UniProt P00748); experiment: FXIIa inhibitor potency, concentration-response, biochemical (AID 716); type: functional
T2 sequence (P00748 whole entry): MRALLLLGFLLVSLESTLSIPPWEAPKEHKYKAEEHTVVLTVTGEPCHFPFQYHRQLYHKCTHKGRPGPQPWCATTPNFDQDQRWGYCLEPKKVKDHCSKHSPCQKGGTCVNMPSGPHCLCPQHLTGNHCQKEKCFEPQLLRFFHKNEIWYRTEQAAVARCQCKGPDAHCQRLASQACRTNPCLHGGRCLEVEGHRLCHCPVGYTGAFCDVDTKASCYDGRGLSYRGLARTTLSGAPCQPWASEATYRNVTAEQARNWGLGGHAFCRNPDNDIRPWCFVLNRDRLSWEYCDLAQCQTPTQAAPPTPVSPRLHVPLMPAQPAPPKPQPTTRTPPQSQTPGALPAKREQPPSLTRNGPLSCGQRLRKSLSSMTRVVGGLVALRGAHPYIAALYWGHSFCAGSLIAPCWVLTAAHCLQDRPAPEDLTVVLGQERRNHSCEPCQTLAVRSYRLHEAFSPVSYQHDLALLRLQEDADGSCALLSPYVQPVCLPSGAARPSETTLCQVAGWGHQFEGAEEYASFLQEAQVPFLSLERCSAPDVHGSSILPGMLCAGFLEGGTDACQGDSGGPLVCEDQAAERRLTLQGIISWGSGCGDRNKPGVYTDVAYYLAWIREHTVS

[12] = HEK293T cytotoxicity, dose response, cytotoxicity control for miR-122 modulator project, cell-based, inhibitor set, cherry-pick, set 2 (AID 720697); type: functional
[13] = HEK293T cell cytotoxicity, dose response, cytotoxicity control, CellTiter-Glo luminescence, dry powder, set 2 (AID 720595); type: functional, cell-based; settings: HEK293
[14] = Shn3 3'UTR reporter inhibitors, dose response, cell-based, Clone20 osteoblasts, firefly luciferase, cherry-picked (AID 624132); type: functional;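 further: firefly luciferase luminescence from reporter carrying the Shn3 3'UTR in osteoblasts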
[15] = control 3'UTR Renilla luciferase suppression, dose response, counter-screen for Shn3 inhibitor project, cell-based, Clone20-Shn3RL, cherry-picked (AID 624133); type: functional
[16] = HeLa cell cytotoxicity, dose response, cytotoxicity control, CellTiter-Glo luminescence, dry powder, set 2 (AID 720593); type: functional, cell-based
[17] = biological target: T3, Microphthalmia-associated transcription factor (Homo sapiens, UniProt O75030); experiment: TRPM1 promoter luciferase signal decrease, dose response, MITF inhibitor project, cell-based, SK-MEL-5, cherry-picked, set 3 (AID 493073); type: functional
T3 sequence (O75030 whole entry): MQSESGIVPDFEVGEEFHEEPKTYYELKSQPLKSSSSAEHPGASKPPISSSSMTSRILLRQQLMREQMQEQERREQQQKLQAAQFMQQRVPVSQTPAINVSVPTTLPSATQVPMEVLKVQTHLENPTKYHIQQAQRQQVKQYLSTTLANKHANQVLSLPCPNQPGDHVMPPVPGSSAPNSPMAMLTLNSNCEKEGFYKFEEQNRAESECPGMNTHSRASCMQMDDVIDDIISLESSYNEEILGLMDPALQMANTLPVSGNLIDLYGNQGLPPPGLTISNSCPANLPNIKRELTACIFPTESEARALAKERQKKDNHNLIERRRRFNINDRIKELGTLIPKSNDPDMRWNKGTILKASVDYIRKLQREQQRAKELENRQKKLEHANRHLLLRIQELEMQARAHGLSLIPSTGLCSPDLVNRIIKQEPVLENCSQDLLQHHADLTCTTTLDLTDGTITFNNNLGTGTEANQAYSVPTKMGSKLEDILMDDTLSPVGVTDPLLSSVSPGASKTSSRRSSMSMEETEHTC

[18] = L. donovani amastigote growth inhibition, dose response, axenic amastigotes, plate reader, cherry pick (AID 651891); type: functional, cell-based; settings: Leishmania donovani
[19] = T. b. rhodesiense proliferation inhibition, dose response, STIB900 strain, plate reader, cherry pick (AID 651893); type: functional, cell-based; settings: Trypanosoma brucei
[20] = T. cruzi amastigote growth inhibition, dose response, Tulahuen strain, L-6 host cells, dry powder (AID 651890); type: functional, cell-based
[21] = P. falciparum blood-stage growth inhibition, dose response, NF54 strain, plate reader, dry powder (AID 651889); type: functional, cell-based
[22] = L-6 rat myoblast cytotoxicity, dose response, counter-screen for T. cruzi inhibitor project, cell-based, plate reader, dry powder (AID 651895); type: functional
[23] = growth inhibition of intracellular T. cruzi, dose response, cell-based, plate reader, dry powder samples (AID 651845); type: functional
[24] = intracellular Trypanosoma cruzi inhibitors in host cells – cell-based, plate reader, cherry-pick samples, set 3, dose response (AID 651818); type: functional;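 further: compounds incubated with infected cells for about four days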
[25] = T. b. rhodesiense proliferation inhibition, dose response, STIB900 strain, plate reader, dry powder (AID 651894); type: functional, cell-based
[26] = L. donovani amastigote growth inhibition, dose response, axenic amastigotes, plate reader, dry powder (AID 651892); type: functional, cell-based
[27] = T. cruzi intracellular amastigote growth inhibition, dose response, imaging, CA-I/72 strain, bovine embryo skeletal muscle, dry powder (AID 651885); type: functional, cell-based
[28] = T. cruzi growth inhibition in host cells, dose response, cell-based, plate reader, dry powder, set 2 (AID 652275); type: functional
[29] = cytotoxicity in L-6 rat myocytes, dose response, cytotoxicity control, cell-based, plate reader, cherry-pick (AID 651896); type: functional
[30] = biological target: NAD-dependent protein deacylase sirtuin-5, mitochondrial (Homo sapiens, UniProt Q9NXA8); experiment: SIRT5 desuccinylase inhibitors, dose response, biochemical, fluorescence imaging, cherry-pick, set 5 (AID 720591);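 further: desuccinylation of succinyl peptide AMC substrate read as fluorescence after trypsin release; potency of inhibitors that lower fluorescence and may act on trypsin instead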
Chain of NAD-dependent protein deacylase sirtuin-5, mitochondrial (Q9NXA8 whole entry): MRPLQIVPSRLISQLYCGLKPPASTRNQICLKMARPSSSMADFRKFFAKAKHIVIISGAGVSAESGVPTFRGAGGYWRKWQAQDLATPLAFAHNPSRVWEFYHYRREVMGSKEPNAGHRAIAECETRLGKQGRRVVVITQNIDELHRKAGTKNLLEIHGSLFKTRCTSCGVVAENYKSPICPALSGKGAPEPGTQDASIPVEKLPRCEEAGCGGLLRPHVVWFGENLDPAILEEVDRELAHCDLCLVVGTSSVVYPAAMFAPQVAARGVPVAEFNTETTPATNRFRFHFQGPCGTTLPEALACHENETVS

[31] = inhibitors of PGC1a acetylation in cells, dose response, cell-based, cherry-picked samples (AID 720514); type: functional;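 further: potency may reflect raised or lowered acetylation signal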
Paired box protein Pax-8 = Paired box protein Pax-8 (Homo sapiens, UniProt Q06710); experiment: inhibitors of PAX8-driven TPO luciferase reporter, dose response, RMG-I cells, cherry-pick (AID 687027); type: functional, cell-based;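 further: luciferase reporter driven by Pax8 target thyroperoxidase promoter measured by SteadyGlo luminescence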
Chain of Paired box protein Pax-8 (Q06710 whole entry): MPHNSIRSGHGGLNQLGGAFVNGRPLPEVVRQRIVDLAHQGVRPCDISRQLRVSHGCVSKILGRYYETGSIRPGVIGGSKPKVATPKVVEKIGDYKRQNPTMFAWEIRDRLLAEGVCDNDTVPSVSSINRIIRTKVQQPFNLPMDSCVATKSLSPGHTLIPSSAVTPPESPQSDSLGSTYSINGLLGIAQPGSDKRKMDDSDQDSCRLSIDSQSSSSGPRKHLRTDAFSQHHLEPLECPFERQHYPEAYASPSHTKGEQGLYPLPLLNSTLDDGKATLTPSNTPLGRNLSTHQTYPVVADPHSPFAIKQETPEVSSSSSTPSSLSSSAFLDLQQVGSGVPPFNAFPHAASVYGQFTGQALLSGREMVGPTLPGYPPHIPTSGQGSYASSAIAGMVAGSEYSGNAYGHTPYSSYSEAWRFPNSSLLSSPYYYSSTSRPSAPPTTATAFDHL

[32] = non-specific cell cytotoxicity, dose response, cytotoxicity control for PAX8 inhibitor project, plate reader, dry powder samples (AID 743021); type: functional, cell-based
[33] = HepG2 cell cytotoxicity, dose response, cytotoxicity control, cherry-picked samples (AID 1159577); type: functional, cell-based
[34] = cytotoxicity in OVCAR8 ovarian cancer cells, dose response, PAX8 project, cell-based, plate reader, dry powder samples (AID 743197); type: functional; settings: OVCAR-8
[35] = IGROV1 ovarian cancer cell cytotoxicity, dose response, PAX8 inhibitor project, plate reader, dry powder samples (AID 743043); type: functional, cell-based; settings: IGROV-1
[36] = P. falciparum Dd2 growth inhibitors, dose response, SYBR Green, cherry-picked samples (AID 1159567); type: functional, cell-based
[37] = NIH:OVCAR-3 ovarian cancer cell cytotoxicity, dose response, PAX8 inhibitor project, plate reader, dry powder samples (AID 743044); type: functional, cell-based

T1 sequence (P02675 whole entry, the tested form may be a part): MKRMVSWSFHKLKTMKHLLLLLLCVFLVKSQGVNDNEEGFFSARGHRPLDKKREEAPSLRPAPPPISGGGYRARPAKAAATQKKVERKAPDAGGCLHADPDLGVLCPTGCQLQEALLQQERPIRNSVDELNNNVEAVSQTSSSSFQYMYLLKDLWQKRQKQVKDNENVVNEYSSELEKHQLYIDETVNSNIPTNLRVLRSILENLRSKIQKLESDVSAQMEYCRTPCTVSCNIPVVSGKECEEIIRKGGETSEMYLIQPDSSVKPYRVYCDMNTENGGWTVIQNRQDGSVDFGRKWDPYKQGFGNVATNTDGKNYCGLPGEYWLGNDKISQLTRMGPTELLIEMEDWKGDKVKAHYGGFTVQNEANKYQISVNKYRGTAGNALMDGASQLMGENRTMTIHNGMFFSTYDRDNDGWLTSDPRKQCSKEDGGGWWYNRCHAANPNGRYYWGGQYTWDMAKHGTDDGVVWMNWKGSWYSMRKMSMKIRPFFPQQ

Cc1cc2c(cc1S(=O)(=O)N1CCN(c3cccc(C)c3C)CC1)OCCN2C
inactive: IC50 (Fibrinogen beta chain [1]) > 83.3 µM | IC50 (Fibrinogen beta chain [2]) 10.1 µM

CC(C)C(=O)NC(c1ccco1)c1ccc2cccnc2c1O (stereo unspecified)
inconclusive: EC50 [4] 4.72 µM
active: EC50 [3] 3.15 µM | EC50 (cells [6]) 16.5 µM | AC50 [7] 3.1 µM | EC50 (Streptococcus) 3.87 µM | EC50 [9] 38.8 µM | EC50 [10] 1.6 µM | AC50 [11] 5 µM | AC50 [12] 3.72 µM | AC50 [13] 6.24 µM | AC50 [14] 2.05 µM | AC50 [15] 4.36 µM | AC50 [17] 8.18 µM
> 350 µM (not active): EC50 (cells [8])
> 50 µM (not active): EC50 (HT-1080)
inactive: AC50 [5] > 52 µM | IC50 (Coagulation factor XII) > 50 µM | AC50 [16] > 52 µM

C[C@@H]1CN([C@H](C)CO)C(=O)c2cccc(NC(=O)c3ccncc3)c2O[C@@H]1CN(C)Cc1ccc(Oc2ccccc2)cc1
active: IC50 [20] 1.16 µM | AC50 [23] 0.286 µM | AC50 [24] 1.05 µM | IC50 [27] 2 µM | AC50 [28] 0.309 µM
inactive: IC50 [18] > 100 µM | IC50 [19] 2.63 µM | IC50 [21] 2.23 µM | IC50 [22] 64.6 µM | IC50 [25] 1.31 µM | IC50 [26] > 100 µM | IC50 [29] 44.2 µM

O=C(NC(c1ccc(Cl)cc1)c1cnccn1)C1CCN(Cc2ccc(Cl)cc2)CC1 (stereo unspecified)
inactive: AC50 [30] > 30 µM

COc1ccccc1-c1ccc([C@@H]2[C@@H]3CN(S(=O)(=O)c4ccc(-c5ccccc5)cc4)C[C@H]2N3)cc1
active: AC50 [31] 9.34 µM | AC50 (Paired box protein Pax-8) 23.3 µM | AC50 [32] 0.302 µM | AC50 [33] 10.6 µM | AC50 [34] 56 µM | AC50 [35] 49.5 µM | AC50 [36] 2.6 µM | AC50 [37] 33.6 µM

From ChEMBL document CHEMBL1201862, “PubChem BioAssay data set” (2004)
